In brackets after ≈: the same amount, converted by molar mass. Marks after values point to notes of the source that are not given here.
What was measured:
[1] = target: S. aureus HMGR (Staphylococcus aureus, UniProt Q9FD86); assay: biochemical
[2] = system: Candida albicans ATCC 18804; assay: MIC/MFC against Candida albicans in YM broth; assay type: cell-based; conditions: yeast medium broth
Method: Antifungal activities of 22 HMG-CoA Reductase inhibitors were initially tested at 100 μM concentration against Candida albicans ATCC 18804.

[3] = system: methicillin-resistant Staphylococcus aureus (MRSA) ATCC 43300; assay: MIC/MBC micro dilution against MRSA
[4] = system: Staphylococcus aureus ATCC 6538 adherent organisms (biofilm); assay: MIC/MBC in adherent-cell biofilm of S. aureus ATCC 6538; assay type: cell-based; conditions: for Adherent organisms (biofilm) MIC^b: S. aureus ATCC 6538, 20 h; for Adherent organisms (biofilm) MBC^b: S. aureus ATCC 6538, regrowth 20 h in antibiotic-free MHB
Method: An adherent biofilm for susceptibility testing was formed using a clinical isolate of Staphylococcus aureus (ATCC 6538). S. aureus biofilms were prepared in a tissue culture non-treated polystyrene 96-well plate (Corning) and washed with phosphate-buffered saline (PBS) to remove unbound bacteria. Subsequently, serial twofold dilutions of the compounds in MHB were added to wells containing adherent organisms. The polystyrene plates were incubated for 20 h at 37° C. The MIC was taken as the lowest drug concentration at which observable growth was inhibited.

[5] = system: Staphylococcus aureus ATCC 6538 planktonic organisms (not in biofilm); assay: MIC/MBC against planktonic S. aureus ATCC 6538; assay type: cell-based
[6] = system: Bacillus anthracis Sterne strain (34F2); assay type: cell-based
[7] = system: Bacillus subtilis; assay: Screen and MIC/MBC against Bacillus subtilis; assay type: cell-based
[8] = system: Bacillus cereus; assay: Screen and MIC/MBC against Bacillus cereus; assay type: cell-based
[9] = system: vancomycin intermediate Staphylococcus aureus (VISA) NRS1; assay: MIC/MBC against clinical VISA isolate
[10] = system: J774A.1 cells; assay: In vitro cell viability/cytotoxicity MTS assay; assay type: cell-based; conditions: 100 μM, 24 hours
Method: Cytotoxicity of the compounds was evaluated using J774A.1 cells (mitochondrial function) in the CellTiter 96® AQueous Non-Radioactive Cell Proliferation Assay (Promega). […] Formazan is measured by measuring the absorbance at 490 nm. Briefly, ˜2×10^4 J774A.1 cells suspended in 200 μL DMEM supplemented with 10% fetal bovine serum (FBS), L-glutamine, NaHCO3, pyridoxine-HCl, and […] glucose and preserved with 1% penicillin-streptomycin solution were seeded in 96-well plates and incubated at 37° C. in a 5% CO2 atmosphere. The cells were cultured for 24 hours (60% confluency) before the assays. The J774A.1 cells were further incubated with 100 μM of compounds (2f, […], 2j, and 2e) and DMSO as a control for 24 hours. The culture media was discarded, and the cells in each well were washed with PBS and re-suspended with 100 μL of cell culture media prior to addition of the assay reagent. The plates were incubated for 4 hours at 37° C. in a humidified 5% CO2 atmosphere. The absorbance at 490 nm was recorded using a 96-well Elisa plate reader (SoftMax ProInc., USA). Results were expressed as the percentage mean absorbance by cells upon incubation with various treatments (compounds 2f, 2j, 2i, and 2e) with respect to incubation with DMSO. The results are expressed as means from six measurements±SD.

[11] = system: clinical methicillin-resistant Staphylococcus aureus (MRSA) isolates; assay: MIC/MBC against clinical MRSA isolates
[12] = system: Listeria monocytogenes; assay: Screen and MIC/MBC against Listeria monocytogenes; assay type: cell-based
[13] = system: vancomycin resistant Enterococcus faecalis (VRE) ATCC 51299; assay: MIC/MBC micro dilution against VRE; conditions: VRE ATCC 51299, MHB, 20 hours
[14] = system: Brucella abortus; assay type: cell-based
[15] = system: MRSA; assay: Time-kill assay against MRSA in MHB; conditions: 3× MIC
[16] = system: C. elegans infected with MRSA; assay: Treatment of C. elegans infected with MRSA; conditions: MRSA-infected worms, 100 μM

S. aureus HMGR, sequence (Q9FD86 entry or part of it): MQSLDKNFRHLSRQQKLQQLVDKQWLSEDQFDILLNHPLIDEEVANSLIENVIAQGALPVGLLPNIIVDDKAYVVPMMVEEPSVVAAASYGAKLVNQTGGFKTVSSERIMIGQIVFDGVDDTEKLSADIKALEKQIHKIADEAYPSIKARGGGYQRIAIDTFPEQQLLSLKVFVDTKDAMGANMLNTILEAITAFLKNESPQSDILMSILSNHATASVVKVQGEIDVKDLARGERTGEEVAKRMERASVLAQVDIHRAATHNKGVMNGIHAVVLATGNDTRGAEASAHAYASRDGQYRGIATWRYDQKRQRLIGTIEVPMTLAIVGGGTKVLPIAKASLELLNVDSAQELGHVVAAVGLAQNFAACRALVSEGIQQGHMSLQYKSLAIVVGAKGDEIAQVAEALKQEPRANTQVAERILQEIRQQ

Compound: CC(C)CCCCc1ccc(NS(=O)(=O)c2ccc(O)c(C(=O)O)c2)cc1 [Compound 2j, 2-hydroxy-5-[N-(4-(5-methylhexyl)phenyl)sulfamoyl]benzoic acid]
- IC50 [1]: 22 µM
- Candida albicans MFC [2]: 128/>128
- Candida albicans MIC [2]: 128/>128
- MRSA MBC ([3]; MRSA ATCC 43300, MHB, 20 hours, Table 2): 64/64
- MBC ([3]; Staphylococcus aureus): 64 µM (≈ 25.1 µg/mL)
- MIC ([3]; Staphylococcus aureus): 64 µM (≈ 25.1 µg/mL)
- Adherent organisms (biofilm) MIC^b [4]: 128 µM
- Adherent organisms (biofilm) MBC^b [4]: 128 µM
- Planktonic organisms (not in biofilm) MBC [5]: 64 µM
- Planktonic organisms (not in biofilm) MIC [5]: 64 µM
- inhibition of growth in initial screen ([6]; 100 μM): showed inhibition of growth
- Bacillus anthracis MBC ([6]; MHB): 32/32
- Bacillus anthracis MIC ([6]; MHB): 32/32
- inhibition of growth in initial screen ([7]; 100 μM): showed inhibition of growth
- Bacillus subtilis MBC ([7]; MHB): 32/32
- Bacillus subtilis MIC ([7]; MHB): 32/32
- inhibition of growth in initial screen ([8]; 100 μM): showed inhibition of growth
- Bacillus cereus MBC ([8]; MHB): 64/64
- Bacillus cereus MIC ([8]; MHB): 64/64
- MBC [9]: 16 µM (≈ 6.26 µg/mL)
- MIC [9]: 16 µM (≈ 6.26 µg/mL)
- percentage mean absorbance at 490 nm (MTS) versus DMSO [10]: no significant differences in percentage mean absorption
- MBC ([11]; MRSA / NRS123 / USA400): 32 µM (≈ 12.5 µg/mL)
- MIC ([11]; MRSA / NRS123 / USA400): 16 µM (≈ 6.26 µg/mL)
- MBC ([11]; MRSA / NRS382 / USA100): 32 µM (≈ 12.5 µg/mL)
- MIC ([11]; MRSA / NRS382 / USA100): 16 µM (≈ 6.26 µg/mL)
- MBC ([11]; MRSA / NRS383 / USA200): 32 µM (≈ 12.5 µg/mL)
- MIC ([11]; MRSA / NRS383 / USA200): 16 µM (≈ 6.26 µg/mL)
- MBC ([11]; MRSA / NRS384 / USA300): 32 µM (≈ 12.5 µg/mL)
- MIC ([11]; MRSA / NRS384 / USA300): 16 µM (≈ 6.26 µg/mL)
- MBC ([11]; MRSA / NRS385 / USA500): 16 µM (≈ 6.26 µg/mL)
- MIC ([11]; MRSA / NRS385 / USA500): 16 µM (≈ 6.26 µg/mL)
- MBC ([11]; MRSA / NRS386 / USA700): 16 µM (≈ 6.26 µg/mL)
- MIC ([11]; MRSA / NRS386 / USA700): 16 µM (≈ 6.26 µg/mL)
- MBC ([11]; MRSA / NRS387 / USA800): 32 µM (≈ 12.5 µg/mL)
- MIC ([11]; MRSA / NRS387 / USA800): 16 µM (≈ 6.26 µg/mL)
- MBC ([11]; MRSA / NRS483): 32 µM (≈ 12.5 µg/mL)
- MIC ([11]; MRSA / NRS483): 16 µM (≈ 6.26 µg/mL)
- MBC ([11]; MRSA / NRS484): 32 µM (≈ 12.5 µg/mL)
- MIC ([11]; MRSA / NRS484): 16 µM (≈ 6.26 µg/mL)
- inhibition of growth in initial screen ([12]; 100 μM): showed inhibition of growth
- Listeria monocytogenes MBC ([12]; MHB): 128/>128
- Listeria monocytogenes MIC ([12]; MHB): 128/>128
- VRE MBC [13]: 128/128
- inhibition of growth in initial screen ([14]; 100 μM): showed inhibition of growth
- Brucella abortus (single value, head does not say MIC or MBC) ([14]; MHB): 64 µM

Compound: CN[C@H](CC(C)C)C(=O)N[C@H]1C(=O)N[C@@H](CC(N)=O)C(=O)N[C@H]2C(=O)N[C@H]3C(=O)N[C@H](C(=O)N[C@H](C(=O)O)c4cc(O)cc(O)c4-c4cc3ccc4O)[C@H](O)c3ccc(c(Cl)c3)Oc3cc2cc(c3O[C@@H]2O[C@H](CO)[C@@H](O)[C@H](O)[C@H]2O[C@H]2C[C@](C)(N)[C@H](O)[C@H](C)O2)Oc2ccc(cc2Cl)[C@H]1O [Vancomycin, vancomycin, reference compound]
- time-kill of MRSA cells [15]: failed to reduce the number of CFU by 3-log10 within a 10 hour window
- Adherent organisms (biofilm) MIC^b [4]: 2 µM
- Adherent organisms (biofilm) MBC^b [4]: 8 µM
- Log CFU/worm ([16]; 16 hours treatment): 3.26 ± 0.20 Log CFU/worm
- Log Reduction ([16]; versus DMSO control): 1.78*

From patent publication US9604925B2, “Class II HMG-CoA reductase inhibitors and methods of use” (Purdue Research Foundation, priority 2012, dated 2017)
